In patent US6410733B1, “Amidine inhibitors of serine proteases” (Genentech, Inc., priority 2000, dated 2002):

Target: human Factor Xa (Homo sapiens, UniProt P00742)
Experiment: Factor Xa assay
Type: biochemical
Parameters: This complex converts factor X to Xa; purchased Hematologic Technologies
Details: 3.3 nM Xa, S-2222 0.5 mM; read-out: binding affinity to serine proteases: Xa (constant of inhibition Ki)
Method: These procedures are used to determine the constant of inhibition (Ki) for a sample compound of the invention.
Coagulation Factor: human Factor Xa, Thrombin, or Plasma Kallikrein (Hematologic Technologies) Dilute to 0.45 μg/mL (9.8 nM) in assay buffer.
Substrate: S-2222, S2366 or S2302—(See below—Chromogenix Inc,) Reconstitute at 5 mM in H2O. Dilute to 1.5 mM in assay buffer prior to use.
Samples: Dilute samples to 3% DMSO in assay buffer.
1. Add 50 μL sample to each well.
2. Add 50 μL appropriately diluted coagulation factor to each well.
3. Incubate for 5 minutes at room temperature with gentle agitation.
4. Add 50 μL appropriately diluted substrate to each well.
5. Agitate plate for 20-25 sec.
6. Monitor absorbance at 405 nm every 10 sec for a total of 5 minutes at room temperature.
7. Calculate Vmax over 10 points.

human Factor Xa, sequence (P00742 235-488 limits assumed): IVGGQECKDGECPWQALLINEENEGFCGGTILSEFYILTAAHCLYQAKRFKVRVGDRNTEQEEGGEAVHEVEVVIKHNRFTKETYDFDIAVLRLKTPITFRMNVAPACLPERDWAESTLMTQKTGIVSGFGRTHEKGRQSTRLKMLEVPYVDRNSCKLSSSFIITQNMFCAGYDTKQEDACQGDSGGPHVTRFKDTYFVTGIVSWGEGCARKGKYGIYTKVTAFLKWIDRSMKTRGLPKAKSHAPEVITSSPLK
human Factor Xa, sequence (P00742 41-179 limits assumed): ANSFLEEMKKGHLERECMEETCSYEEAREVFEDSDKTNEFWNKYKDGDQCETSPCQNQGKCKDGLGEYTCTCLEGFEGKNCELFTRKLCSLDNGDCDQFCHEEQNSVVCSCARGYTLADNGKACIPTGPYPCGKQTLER

Ki: 114 µM
SMILES: C[C@@H](NC(=O)[C@@H]1C[C@@H](Oc2cccc(C(=N)N)c2)CN1)c1ccccc1 [compound 26]
